Like-named read-outs stand apart in the source and are kept apart here.
Columns and labels:
Assay type in all cases: biochemical, guinea pig
PDE2 = target: T1, PDE2 (Cavia porcellus, UniProt A0A286XUV5); test: Inhibition of cyclic nucleotide PDE activity (Assay I), PDE2
T1 sequence (A0A286XUV5 22-936): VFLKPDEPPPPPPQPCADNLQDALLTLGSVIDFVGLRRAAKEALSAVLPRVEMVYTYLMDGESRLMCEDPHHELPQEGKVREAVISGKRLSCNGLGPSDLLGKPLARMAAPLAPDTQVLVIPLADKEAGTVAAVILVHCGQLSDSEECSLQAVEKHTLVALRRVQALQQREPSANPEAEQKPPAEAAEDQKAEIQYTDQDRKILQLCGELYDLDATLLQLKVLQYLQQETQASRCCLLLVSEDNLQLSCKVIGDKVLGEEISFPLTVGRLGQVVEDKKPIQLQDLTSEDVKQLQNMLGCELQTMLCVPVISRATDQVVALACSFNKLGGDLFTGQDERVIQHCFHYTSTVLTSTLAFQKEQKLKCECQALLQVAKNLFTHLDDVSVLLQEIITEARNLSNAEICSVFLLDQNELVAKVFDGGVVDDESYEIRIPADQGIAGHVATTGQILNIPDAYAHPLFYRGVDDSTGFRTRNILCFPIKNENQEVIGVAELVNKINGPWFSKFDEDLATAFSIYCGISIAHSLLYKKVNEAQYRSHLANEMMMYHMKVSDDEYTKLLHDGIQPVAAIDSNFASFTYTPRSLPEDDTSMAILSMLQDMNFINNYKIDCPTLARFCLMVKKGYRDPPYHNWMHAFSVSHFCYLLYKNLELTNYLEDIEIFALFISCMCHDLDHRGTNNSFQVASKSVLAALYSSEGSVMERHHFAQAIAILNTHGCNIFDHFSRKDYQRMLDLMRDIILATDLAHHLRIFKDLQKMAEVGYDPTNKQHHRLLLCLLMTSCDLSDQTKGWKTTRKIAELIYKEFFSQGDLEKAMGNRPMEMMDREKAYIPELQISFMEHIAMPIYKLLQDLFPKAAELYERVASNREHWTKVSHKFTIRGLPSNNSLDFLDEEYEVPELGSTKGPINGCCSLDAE
Procedure: (§1) Under a protocol approved by the Animal Care and Use Committee of Taipei Medical University, five male guinea pigs (Hartley), weighing 500-600 g, were sacrificed. The lungs (15 g) or hearts (4 g) taken therefrom were chopped into small pieces and homogenized with a glass/teflon homogenizer (Glas-Col, Terre Haute, Ind., USA) in 10 volumes of cold medium (pH 6.5) containing 20 mM Bis-Tris, 2 mM benzamidine, 2 mM EDTA, 50 mM sodium chloride, 0.1 mM phenylmethanesulfonyl fluoride (PMSF), and 1 mM dithiothreitol. At 4° C., the homogenate was centrifuged at 170 g for 15 min, and the supernatant thereof was then re-centrifuged at 40,000 g for 30 min. […] The column was washed with two bed volumes of homogenate buffer to remove unbound material, where the resin beads therein will bind with proteins, such as PDE proteins. Proteins bound to the Q-sepharose beads were eluted with various concentrations (0.23, 0.34, 0.44, 0.69, and 1.00 M) of NaCl dissolved in homogenate buffer (for each concentration, 40-50 mL elution buffer were applied) at a flow rate of 30 ml/h. Fractions (3 ml each) were collected, and ethylene glycol (EG) was added thereto until a final concentration of 30% (v/v). And then the samples were frozen at −70° C.
(§2) The activities of PDE1-5 in the homogenate were measured with a two-step procedure according to the method of Thompson and Appleman, using cAMP with [^3H]-cAMP or cGMP with [^3 H]-cGMP as substrates. The PDE enzyme prepared (25 μl) with 10 μl inhibitor or the solvents therefor was incubated for 30 min at 37° C. in a total assay buffer, where the final volume of the assay is amounted to 100 μl. In accordance with the features of the PDE isozymes, the assay buffer contains 50 mM Tris/HCl (pH 7.4), 3 mM MgCl2, 1 mM dithiothreitol, and 0.05% BSA, and optionally contains 1 uM cAMP with 0.2 μCi [^3H]-cAMP as a substrate alone or in the presence of 0.1 unit calmodulin with 10 μM CaCl2, or 5 μM cGMP, and 1 μM cGMP with 0.2 μCi [^3H]-cGMP as another substrate alone or in the presence of 0.1 unit calmodulin with 10 μM CaCl2.
(§3) The PDE enzyme and the inhibitors (or their solvent) therefor were mixed and incubated on ice for 30 min previously, and then mixed with the assay buffer. The assay was initiated by transferring the mixture to a water bath at 37° C. Following the other 30 min incubation, the reaction was stopped by transferring the reaction vessel to a bath of boiling water for 3 min. After cooling on ice, 20 μl of the 1 mg/ml of Crotalus atrox venom was added to the reaction mixture, and the mixture was incubated at 37° C. for 10 min. The uncatalyzed substrates, such as cAMP, [^3H]-cAMP, cGMP, or [^3H]-cGMP were removed by the addition of 500 μl of a 1-in-1 Tris-HCl (40 mM) buffer suspension of Dowex resin (1×8-200) with incubation on ice for 30 min, since the bindings of the cyclic nucleotides and the resin. Each tube was then centrifuged for 2 min at 6000 rpm, and 100 μl of the supernatant was removed and counted by a β-counter for calculating the enzyme (PDEs) activity.
(§4) The IC50 values of flavonoids and various reference drugs were calculated using non-linear regression analysis by the software SigmaPlot 7.0 (Sigma Chemical, St. Louis Mo., USA). All values are shown as the mean±S.E.M. Differences among values, which are equal or greater to three groups, were statistically calculated by one-way analysis of variance (ANOVA), and then determined by the least significant difference (LSD). The difference between two values, however, was determined by use of Student's unpaired t-test. Differences were considered statistically significant if the P-value was less than 0.05.

PDE3 = test: Inhibition of cyclic nucleotide PDE activity (Assay I), PDE3; settings: mean ± S.E.M. (n); read-out: IC50 on phosphodiesterase isozyme 3
Procedure: as §1, §2, §3, §4

PDE4 = test system: T2, PDE4; test: Inhibition of cyclic nucleotide PDE activity (Assay I), PDE4, incl. Lineweaver-Burk analysis; settings: for IC50: mean ± S.E.M. (n), read-out: IC50 on phosphodiesterase isozyme 4
T2 construct: IC50 on phosphodiesterase isozyme 4; other: mean ± S.E.M. (n)
Procedure: as §1, §2, §3
The dissociation constant of inhibitor binding (Ki) value was determined from the equation of apparent Km as a function of the inhibitor concentration (insert in A and B, respectively). The slope of the equation is equal to the value of […] (where KM is Michaelis constant). The amounts of the total proteins are calculated based on the analytical method reported by Bradford. In FIGS. 1A and 1B, all enzyme activities are shown as nmole of substrate per mg of proteins per minute (nmole/mg/min) hydrolyzed.
The IC50 values of flavonoids and various reference drugs were calculated using non-linear regression analysis by the software SigmaPlot 7.0 (Sigma Chemical, St. Louis Mo., USA).

[1] = mean ± S.E.M. (n), read-out: IC50 on phosphodiesterase isozyme 2

COc1ccc(C2CC(=O)c3c(O)cc(O)cc3O2)cc1O (stereo not shown) [Hesperetin]
IC50 (PDE2; [1]): > 100 µM | IC50 (PDE3): > 100 µM | mode of inhibition of PDE4 enzyme activity (PDE4; Lineweaver-Burk plot, cAMP substrate, FIG. 1A): competitively inhibits

O=c1cc(-c2ccccc2)oc2cc(O)cc(O)c12 [Chrysin]
IC50 (PDE2; [1]): > 100 µM | IC50 (PDE3): > 100 µM | IC50 (PDE4): > 100 µM

O=c1c(-c2ccc(O)cc2)coc2cc(O)cc(O)c12 [Genistein]
IC50 (PDE2; [1]): 1.7 ± 0.2 µM | IC50 (PDE3): 12.9 ± 5.2 µM

O=c1c(-c2ccc(O)cc2)coc2cc(O)ccc12 [Daidzein]
IC50 (PDE2; [1]): > 100 µM | IC50 (PDE3): 28.6 ± 8.5 µM | IC50 (PDE4): > 100 µM

COc1cc(O)c2c(=O)c(-c3ccc(O)cc3)coc2c1 [Prunetin]
IC50 (PDE2): > 100 µM | IC50 (PDE3): > 100 µM

O=c1c(O)c(-c2cc(O)c(O)c(O)c2)oc2cc(O)cc(O)c12 [Myricetin]
IC50 (PDE2; [1]): 12.8 ± 0.6 µM | IC50 (PDE3): 12.4 ± 3.3 µM

COc1ccc(-c2coc3cc(O)cc(O)c3c2=O)cc1 [Biochanin A]
IC50 (PDE2; [1]): 27.9 ± 4.1 µM | IC50 (PDE3): > 100 µM

O=c1cc(-c2ccc(O)c(O)c2)oc2cc(O[C@@H]3O[C@H](CO)[C@@H](O)[C@H](O)[C@H]3O)cc(O)c12 [Luteolin-7-glucoside]
IC50 (PDE2; [1]): 35.1 ± 0.2 µM | IC50 (PDE3): > 100 µM | IC50 (PDE4): 43 ± 5.3 µM

O=c1c(O)c(-c2ccc(O)c(O)c2)oc2cc(O)cc(O)c12 [Quercetin]
IC50 (PDE2; [1]): 17.9 ± 3.4 µM | IC50 (PDE3): 5.6 ± 1 µM

O=c1cc(-c2ccc(O)c(O)c2)oc2cc(O)cc(O)c12 [Luteolin]
IC50 (PDE2; [1]): 13.3 ± 0.8 µM | IC50 (PDE3): 10.1 ± 1.8 µM | IC50 (PDE4): 19.1 ± 2.4 µM

O=c1cc(-c2ccc(O)cc2)oc2cc(O)cc(O)c12 [Apigenin]
IC50 (PDE2; [1]): 16.7 ± 6.3 µM | IC50 (PDE3): 10.5 ± 3.5 µM | IC50 (PDE4): > 100 µM

O=C1CC(c2ccc(O)c(O)c2)Oc2cc(O)cc(O)c21 (stereo not shown) [Eriodictyol]
IC50 (PDE2; [1]): > 100 µM | IC50 (PDE3): 52.5 ± 17.7 µM | IC50 (PDE4): > 100 µM

— US20060229358A1, “Pharmaceutical composition containing flavonoids” (Taipei Medical University, priority 2005, published 2006)
